According to patent US20040156816A1, “Lipid-drug complexes in reversed liquid and liquid crystalline phases” (priority 2002, published 2004):

Conditions: free acid ion-paired with arginine in Arlatone G / ginger oil / water cubic phase; overlain with large excess of water; two days
Description: The antiosteolytic drug Alendronate (as the free acid) was incorporated into a cubic phase based on the ethoxylated, hydrogenated castor oil surfactant Arlatone G (from Uniquema).

- amount of alendronate which leaked out of the cubic phase into the water: undetectable
SMILES: NCCCC(O)(P(=O)(O)O)P(=O)(O)O [alendronate, Alendronate]
